Data published in patent US20260041744A1, “Methods for Treating Pompe Disease” (Amicus Therapeutics, Inc., priority 2022, published 2026).
“Also recorded” adds a separate entry of the source.

What was measured:
[1] = test system: adult subjects with late-onset Pompe disease (LOPD); assay: Study ATB200-03: global test and responder analyses on 6MWD, FVC, MMT; type: in vivo, human
Excerpt: To support the interpretation of clinical benefit, a composite subject-level response was defined based on the totality of the treatment outcome data. Subjects were classified by an ordinal response variable consisting of significant improvement, moderate improvement, or minor/no improvement based on treatment outcomes.
Thresholds for clinically relevant changes for 6MWD and FVC in Pompe specifically are not well established, however a large body of data exists from other neuromuscular and chronic respiratory diseases, especially interstitial pulmonary fibrosis (IPF). […] Accordingly, these thresholds were applied to analyses of Study ATB200-03 data.
Additional post hoc patient-level analyses were conducted using these thresholds for 6MWD (±6%) and FVC (±3%) separately and combined.

[2] = test system: adult subjects with LOPD; assay: Study ATB200-07 (OLE): sitting % predicted FVC; type: in vivo, human
Excerpt: The study doses and schedule are maintained from Study ATB200-03.
Efficacy data are presented in this summary as change from the baseline of Study ATB200-03 (OLE-ES Population).

[3] = test system: adult subjects with LOPD; assay: Study ATB200-07 (OLE): PROMIS-Physical Function; type: in vivo, human
Excerpt: (§1) Analysis populations presented in this summary are 1) the OLE-ES Population (all subjects who satisfied the eligibility requirements (based on the inclusion and exclusion criteria) and entered Study ATB200-07 and 2) the OLE-FAS Population (all subjects who entered the OLE Study ATB200-07 who had both a valid ATB200-07 baseline and at least 1 post-baseline assessment for at least 1 of the 6 main efficacy endpoints [6MWD, sitting % predicted FVC, MMT-lower extremities, PROMIS-Physical Function, PROMIS-Fatigue, and GSGC]).

[4] = test system: adult subjects with LOPD; assay: Study ATB200-07 (OLE): GSGC; type: in vivo, human
Excerpt: as §1

[5] = test system: adult subjects with LOPD; assay: Study ATB200-07 (OLE): Hex4
Description: The Phase III double-blind PROPEL study (NCT03729362; ATB200-03) described in Examples 9 and 10 above compared the investigational two-component therapy cipaglucosidase alfa/miglustat (cipa/mig) with alglucosidase alfa/placebo (alglu) in adults with late-onset Pompe disease (LOPD) over 52 weeks. The ongoing open-label extension (OLE) of PROPEL (NCT04138277; ATB200-07) evaluates long-term safety and efficacy of cipa/mig. Outcomes include 6 minute walk distance (6MWD), forced vital capacity (FVC), creatine kinase (CK) and hexose tetrasaccharide (Hex4) levels and safety. Data are reported as change from the PROPEL baseline to OLE week 52 (104 weeks after the PROPEL baseline).

[6] = test system: adult subjects with LOPD; assay: Study ATB200-07 (OLE): MMT lower extremity
Excerpt: as §1

[7] = test system: adult subjects with Pompe disease; assay: Pooled Studies ATB200-02/03/07 (Pool 2): 6MWD by exposure interval
Description: The pooled efficacy analyses presented within this section include the outlier (Pool 2). […] Pooled efficacy analyses excluding the outlier subject (Pool 2A) were also performed.
No long-term data for the alglucosidase alfa/placebo group are available, as all subjects switched to cipaglucosidase alfa/miglustat in Study ATB200-07.
Efficacy data from the 3 adult Pompe disease clinical studies were pooled and analyzed to further support the long-term efficacy of cipaglucosidase alfa/miglustat in adult subjects. Data from non-ambulatory subjects (Study ATB200-02 Cohort 2) were not included in the pool as there was little overlap of efficacy endpoints for this group with the various ambulatory groups, such as 6MWD and lower MMT.
The 3 adult Pompe disease clinical studies were pooled as follows: • The cipaglucosidase alfa/miglustat treatment group consists of: • All ambulatory subjects in Study ATB200-02 (Cohorts 1, 3, and 4), • All subjects randomized to the cipaglucosidase alfa/miglustat treatment group in Study ATB200-03, and • All subjects enrolled in Study ATB200-07. • The alglucosidase alfa/placebo treatment group consists of: • All subjects randomized to the ERT treatment group in Study ATB200-03.

[8] = Excluding Subject 4005-2511, change from baseline to Week 52, 2-sided p 0.010
[9] = ITT Population, change from baseline to Week 52, 2-sided p 0.022
[10] = Study ATB200-03 baseline, OLE-ES Population excluding Subject 4005-2511
[11] = change from ATB200-03 baseline at Week 52, OLE-ES excluding Subject 4005-2511
[12] = change from ATB200-03 baseline at Week 104, alglucosidase alfa/placebo group switched to cipaglucosidase alfa/miglustat at Week 52, OLE-ES excluding Subject 4005-2511
[13] = exposure interval >15 to ≤24 months, Pool 2, including the outlier
[14] = exposure interval >24 months, Pool 2, including the outlier
[15] = exposure interval ≤15 months, Pool 2, including the outlier

ATB200/miglustat: two-component therapy: cipaglucosidase alfa (ATB200) administered in conjunction with miglustat (AT2221), a stabilizer of cipaglucosidase alfa
Wilcoxon rank sum test on sum of ranks for 6MWD and % predicted FVC: Mean Score [1, 8]: 66.5 | Wilcoxon rank sum test on sum of ranks for 6MWD and % predicted FVC: Sum of Scores [1, 8]: 5587.5 | Wilcoxon rank sum test on sum of ranks for 6MWD and FVC: Mean Score [1, 9]: 66.5 | Wilcoxon rank sum test on sum of ranks for 6MWD and FVC: Sum of Scores [1, 9]: 5587.5 | post hoc global test on 6MWD and % predicted FVC ([1]; Wilcoxon rank-sum on summed ranks, listed as cipaglucosidase alfa/miglustat): greater improvement in either 6MWD or FVC; also recorded: greater improvement in subjects treated with cipaglucosidase alfa/miglustat versus alglucosidase alfa/placebo | patient-level responder analyses 6MWD, FVC, MMT ([1]; thresholds ±6%, ±3%, ±7%, overall population, listed as cipaglucosidase alfa/miglustat): a greater proportion of subjects in the overall population treated with cipaglucosidase alfa/miglustat demonstrated clinically meaningful improvement and a smaller proportion demonstrated clinically meaningful worsening across these 3 endpoints; also recorded: significantly greater proportion of subjects with improvement on both domains | sitting % predicted FVC course to Week 104 ([2]; OLE-ES Population, continued cipaglucosidase alfa/miglustat): showed a slight decline from baseline through Study ATB200-03, then stabilized through Week 104 | Sitting FVC, mean BSL [2, 10]: 70.7 % predicted | Sitting FVC, mean 52-wk CFB [2, 11]: −1.1 % predicted | Sitting FVC, mean 104-wk CFB [2, 12]: −1.6 % predicted | PROMIS-Physical Function, mean BSL [3, 10]: 67.0 | PROMIS-Physical Function, mean 52-wk CFB [3, 11]: 2.2 | PROMIS-Physical Function, mean 104-wk CFB [3, 12]: 2.3 | GSGC, mean BSL [4, 10]: 14.4 | GSGC, mean 52-wk CFB ([4]; change from ATB200-03 baseline at Week 52, decrease indicates improvement, OLE-ES excluding Subject 4005-2511): −0.6 | GSGC, mean 104-wk CFB [4, 12]: −1.0 | Hex4 course to Week 104 ([5]; OLE-ES Population, listed as cipaglucosidase alfa/miglustat): CK and Hex4 declined substantially through Study ATB200-03, then stabilized through Study ATB200-07; also recorded: decreased substantially after subjects switched to cipaglucosidase alfa/miglustat through Week 104 | Hex4, mean BSL [5, 10]: 4.6 | Hex4, mean 52-wk CFB [5, 11]: −2.0 | Hex4, mean 104-wk CFB [5, 12]: −2.1 | MMT (lower extremity score), mean BSL [6, 10]: 27.9 | MMT (lower extremity score), mean 52-wk CFB [6, 11]: 1.6 | MMT (lower extremity score), mean 104-wk CFB [6, 12]: 1.8 | other main endpoints (MMT lower extremity, PROMIS-Physical Function, PROMIS-Fatigue, GSGC) course to Week 104 ([6]; treated through Studies ATB200-03 and ATB200-07): either improved or remained stable through Study ATB200-03, and then stabilized through Study ATB200-07 | mean (SD) improvement in % predicted 6MWD ([7]; after at least 24 months (n=70)): 3.3 (10.84) | mean (SD) improvement in 6MWD ([7]; exposure >15 to ≤24 months (n=108)): 17.7 (55.61) meters | mean (SD) improvement in 6MWD ([7]; exposure >24 months (n=70)): 9.7 (67.13) meters | 6MWD Baseline, Mean [7, 13]: 366.33 meters | 6MWD Baseline, Median [7, 13]: 369.25 meters | 6MWD change from baseline, mean [7, 13]: 17.67 meters | 6MWD change from baseline, median [7, 13]: 11.75 meters | 6MWD Baseline, Mean [7, 14]: 367.77 meters | 6MWD Baseline, Median [7, 14]: 376.43 meters | 6MWD change from baseline, mean [7, 14]: 9.67 meters | 6MWD change from baseline, median [7, 14]: 5.23 meters | 6MWD Baseline, Mean ([7]; exposure interval ≤15 months, Pool 2, Efficacy Population including the outlier): 367.10 meters | 6MWD Baseline, Median [7, 15]: 373.75 meters | 6MWD change from baseline, median [7, 15]: 12.00 meters | 6MWD change from baseline, mean ([7]; exposure interval ≤15 months, last available post-baseline value − baseline, Pool 2, including the outlier): 17.13 meters | mean (SD) improvement in 6MWD ([7]; exposure ≤15 months (n=143)): 17.1 (44.92) meters
